According to PMC8600089, “The development of a high-affinity conformation-sensitive antibody mimetic using a biocompatible copolymer carrier (iBody)” (The Journal of Biological Chemistry, 2021):
Where two headings read alike, the source gives them in different places. Blank lines part the entries; values can stand above or below the molecule they belong to. Starred links: 1 amine or outer side, 2 acyl side, 3 side chain; linkers in the order of their positions; H or OH if unused. Positions of bridges follow the written chain, without caps; N, C: chain ends. Residues, ends and D or L forms follow the SMILES beside them. Groups on a side chain read outwards from the residue. *: point of attachment. PEG12 = NCCOCCOCCOCCOCCOCCOCCOCCOCCOCCOCCOCCOCCC(=O)O; Biotin = O=C1N[C@H]2[C@H](CS[C@H]2CCCCC(=O)*)N1; TBMB = c1c(C[*:1])cc(C[*:3])cc1C[*:2]

Legend:
[1] = target: T1, recombinant extracellular part of PSMA (Homo sapiens, UniProt Q04609); assay: Competition ELISA: iBody 1 binding to PSMA versus PSMA inhibitors
[2] = target: PSMA (AviPSMA) (Homo sapiens, UniProt Q04609); assay: PSMA activity assay (HPLC, substrate pteroyl-di-L-glutamate); assay type: biochemical
[3] = target: T1, recombinant extracellular part of PSMA; assay: ELISA with immobilized PSMA

T1 sequence (Q04609 44-750 limits assumed): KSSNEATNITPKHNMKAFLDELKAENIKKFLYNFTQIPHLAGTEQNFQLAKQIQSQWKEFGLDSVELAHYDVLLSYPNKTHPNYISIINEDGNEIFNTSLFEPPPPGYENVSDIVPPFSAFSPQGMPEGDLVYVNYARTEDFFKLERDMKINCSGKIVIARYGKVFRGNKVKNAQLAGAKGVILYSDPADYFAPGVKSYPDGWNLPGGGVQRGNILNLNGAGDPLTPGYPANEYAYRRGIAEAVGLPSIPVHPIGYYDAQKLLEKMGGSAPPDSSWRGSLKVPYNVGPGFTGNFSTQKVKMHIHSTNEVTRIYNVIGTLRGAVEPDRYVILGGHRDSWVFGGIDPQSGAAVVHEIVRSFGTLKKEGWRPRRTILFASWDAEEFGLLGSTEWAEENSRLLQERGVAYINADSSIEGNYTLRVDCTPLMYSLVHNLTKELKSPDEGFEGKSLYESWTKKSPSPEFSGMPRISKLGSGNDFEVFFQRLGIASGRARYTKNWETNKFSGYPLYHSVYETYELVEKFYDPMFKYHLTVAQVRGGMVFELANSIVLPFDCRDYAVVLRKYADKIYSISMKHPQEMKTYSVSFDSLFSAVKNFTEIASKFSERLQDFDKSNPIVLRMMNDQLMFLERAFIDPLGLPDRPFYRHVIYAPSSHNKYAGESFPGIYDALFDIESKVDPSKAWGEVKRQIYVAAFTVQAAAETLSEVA
Chain of PSMA (AviPSMA) (Q04609 44-750 limits assumed): as above

Molecule: O=C(O)CCC(CP(=O)(O)O)C(=O)O (centres unmarked) [2-PMPA, 2-(phosphonomethyl)pentane-1,5-dioic acid]
competition with binding of iBody 1 to PSMA on ELISA (in words) [1]: outcompeted

IC50 ([2]; cell gives μM under a head in nM, 20-min incubation, 37 °C, n = 3): > 50 µM
inhibition at 50 µM ([2]; in 50μM): 10%
EC50 [3]: > 5 µM
Molecule: CC(=O)N[C@H]1CSCc2cc3cc(c2)CSC[C@H](NC(=O)[C@H](CCC(=O)O)NC(=O)[C@H](CC(=O)O)NC(=O)[C@H](CC(=O)O)NC1=O)C(=O)N1CCC[C@H]1C(=O)N[C@@H](CC(=O)O)C(=O)N[C@@H](Cc1ccc(O)cc1)C(=O)N[C@@H](C(C)C)C(=O)N[C@H](C(=O)NCC(=O)NCC(=O)N[C@@H](CO)C(=O)NCC(=O)N[C@@H](CCCCNC(=O)CCOCCOCCOCCOCCOCCOCCOCCOCCOCCOCCOCCOCCNC(=O)CCCC[C@@H]1SC[C@@H]2NC(=O)N[C@@H]21)C(N)=O)CSC3 [Peptide 1] (Ac-CDDECPDYVCGGSGK([PEG12-Biotin])-NH2; linker 1-5-10 via TBMB)

competition with binding of iBody 1 to PSMA on ELISA (in words) ([1]; iBody 1 (5 nM per legend), inhibitor pre-incubated 30 min, then iBody 60 min at RT, representative of >3 experiments, n = 3): outcompeted
Molecule: phosphate

Molecule: poly(HPMA-co-Ma-β-Ala-ATTO488-co-Ma-β-Ala-NH-ED-biotin) [iBody 3, reference compound]
Ratio: value on layer with PSMA divided by value on layer lacking PSMA ([3]; 8 nM iBody): 0.9
Ratio: value on layer with PSMA divided by value on layer lacking PSMA ([3]; 40 nM iBody): 1.3
Ratio: value on layer with PSMA divided by value on layer lacking PSMA ([3]; 200 nM iBody): 1.1
Ratio: value on layer with PSMA divided by value on layer lacking PSMA ([3]; 1000 nM iBody): 0.8
Ratio: value on layer with PSMA divided by value on layer lacking PSMA ([3]; 5000 nM iBody): 0.8
specific binding to immobilized PSMA compared with control layer (in words) ([3]; ELISA, layer with vs without PSMA): no specific binding
